In PubChem BioAssay AID1996:
≈ marks a conversion by molar mass, not a printed value.

Settings: buffer; pH 7.4; 200.0 µM

| SMILES | solubility kinetic |
| --- | --- |
| O=C(CN1C(=O)NC2(CCCc3ccccc32)C1=O)c1ccccc1F (centres undefined) | 10.4 µg/mL (≈ 29.5 µM) |
| O=[N+]([O-])c1ccc([N+](=O)[O-])c(Nc2ccc(N3CCOCC3)cc2)c1 | < 0.2 µg/mL |
| Cc1cc(C(=O)NCCc2ccccc2)c2cc(F)ccc2n1 | 14.9 µg/mL (≈ 48.3 µM) |
| Cc1cc2oc(=O)cc(CN3CCCCC3C)c2cc1C (centres undefined) | 17.9 µg/mL (≈ 62.7 µM) |
| O=C(Nc1ccccc1Cl)NC1(C(=O)N2CCOCC2)CCCCC1 | 25.8 µg/mL (≈ 70.5 µM) |
| O=C(COc1ccccc1)NS(=O)(=O)c1ccc(Cl)cc1 | > 48.9 µg/mL |
| O=C(O)c1ccccc1NC(=O)C1C2C=CC(C2)C1C(=O)O (centres undefined) | > 45.2 µg/mL |
| CC(OC(=O)/C=C/c1cccs1)C(=O)NC1CCCCC1C (centres undefined) | 4.9 µg/mL (≈ 15.2 µM) |
| Cc1cc(=O)n(Cc2ccccc2)c2c(C)cccc12 | < 0.6 µg/mL |
| Cn1c(CN2CCN(CCO)CC2)c(C#N)c2ccccc21 | > 44.8 µg/mL |
| Clc1ccc2c(c1)Nc1ccccc1CC2 | < 0.5 µg/mL |
| COc1ccc(Cc2cnc(N)s2)cc1 | 31.8 µg/mL (≈ 144 µM) |
| N#C/C(=C\c1ccc2c(c1)OCO2)C(=O)NCc1ccco1 | 0.6 µg/mL (≈ 2.03 µM) |
| O=C(Cc1ccccc1F)N1CCN(CC(=O)N2CCCC2)CC1 | > 50 µg/mL |
| CCC(C)c1ccccc1NC(=O)C(C)OC(=O)c1ccco1 (centres undefined) | > 47.3 µg/mL |
| O=S(=O)(CCNCc1cccs1)c1ccc(Cl)cc1 | 32.5 µg/mL (≈ 103 µM) |
| Cc1ccc(Cl)cc1NC(=O)COC(=O)CCN1C(=O)C2CC=CCC2C1=O (centres undefined) | > 60.7 µg/mL |
| O=C(NC1CCCc2ccccc21)c1ccc([N+](=O)[O-])cc1 (centres undefined) | 3.2 µg/mL (≈ 10.8 µM) |
| COc1ccc2cc(C(=O)N3CCN(c4ccccc4F)CC3)[nH]c2c1 | 1.9 µg/mL (≈ 5.38 µM) |
| CC(CC(=O)O)CC(=O)Nc1nncs1 (centres undefined) | > 34.4 µg/mL |

| SMILES | solubility kinetic |
| --- | --- |
| CN1CCN(S(=O)(=O)c2cccc(C(=O)O)c2)CC1 | 42 µg/mL (≈ 148 µM) |
| CCOC(=O)c1cc(COc2cc(Cl)cc(Cl)c2)on1 | < 0.7 µg/mL |
| NS(=O)(=O)c1ccc(CCNC(=O)COC(=O)C2COc3ccccc3O2)cc1 (centres undefined) | > 63.1 µg/mL |
| CC1CN(C)C(C)C/C1=N/Oc1ccccc1[N+](=O)[O-].Cl (centres undefined) | 46.2 µg/mL |
| Cn1c(O)c(C=NCCN2CCOCC2)c(=O)[nH]c1=S | > 44.8 µg/mL |
| O=C(NC1CCCCC1)c1cc(C2CC2)on1 | > 35.1 µg/mL |
| COc1ccc(S(=O)(=O)N2CCOCC2)cc1NC(=O)Cc1ccsc1 | 7.6 µg/mL (≈ 19.2 µM) |
| CCn1cc(S(=O)(=O)N2CCCC2)cn1 | > 34.4 µg/mL |
| COc1ccccc1N1CCN(C(=O)c2cc(C)oc2C)CC1 | > 47.2 µg/mL |
| Cc1nc2ccc(NC(=S)N3CCOCC3)cc2nc1C | 39.3 µg/mL (≈ 130 µM) |
| Cc1cc(NC(=O)CSCC(=O)OCc2nnc(-c3ccc(F)cc3)o2)no1 | > 61 µg/mL |
| CN(CCOc1ccccc1)CC(O)COCc1ccccc1F (centres undefined) | 46 µg/mL (≈ 138 µM) |
| N#Cc1c2n(c3c(N)ncnc13)CCCCC2 | 33.6 µg/mL (≈ 148 µM) |
| COc1ccccc1C(=O)Nc1cc(-c2ccc(C)cc2)no1 | 0.5 µg/mL (≈ 1.62 µM) |
| Cc1c(C=O)c2ccccn2c1C(=O)c1ccc(Cl)c([N+](=O)[O-])c1 | 1.6 µg/mL (≈ 4.67 µM) |
| Cc1ccc(-c2ccc(/C=N/O)o2)cc1[N+](=O)[O-] | 3.4 µg/mL (≈ 13.8 µM) |
| O=C(Cc1ccc(S(=O)(=O)N2CCCC2)s1)Nc1cccc([N+](=O)[O-])c1 | 20.7 µg/mL (≈ 52.3 µM) |
| Cn1c(SCc2ccc(Br)cc2)nc2c(c1=O)SCC2 | < 0.4 µg/mL |
| COc1ccccc1CN(C)C(=O)COC(=O)c1cc(C)oc1C | > 49.7 µg/mL |
| c1ccc2cc(CNCc3cccc4ccccc34)ccc2c1 | 4.1 µg/mL (≈ 13.8 µM) |

| SMILES | solubility kinetic |
| --- | --- |
| COc1ccccc1C(=O)NC(CCSC)C(=O)Nc1ccc(C)c(S(=O)(=O)N2CCOCC2)c1 (centres undefined) | 19.2 µg/mL (≈ 36.8 µM) |
| Cc1ccc(C(=O)N2CCc3ccccc32)cc1[N+](=O)[O-] | < 0.3 µg/mL |
| CSc1cccc(NC(=S)N(C(C)C)C(C)c2ccccn2)c1 (centres undefined) | 9.6 µg/mL (≈ 27.8 µM) |
| COc1cc(C(=O)Nc2cc(OC)c(OC)c(OC)c2)ccc1OCc1c(C)noc1C | 2.9 µg/mL (≈ 6.55 µM) |
| O=C(O)CCCCCNC(=O)OCC1c2ccccc2-c2ccccc21 | 3.4 µg/mL (≈ 9.62 µM) |
| Cl.Nc1cccc2c3c(oc12)CCCC3 | 7.4 µg/mL |
| CC(=O)Nc1cccc(-c2csc(N)n2)c1 | > 35 µg/mL |
| COC(=O)c1ccc(CN2CCc3ccccc32)cc1 | 1 µg/mL (≈ 3.74 µM) |
| CCCOc1ccc(S(=O)(=O)N2CCOCC2)cc1[N+](=O)[O-] | > 49.6 µg/mL |
| C=CCOc1ccc(/C=C2\SC(=Nc3cccnc3)NC2=O)cc1 | 0.7 µg/mL (≈ 2.07 µM) |
| Cc1ccc(S(=O)(=O)CC(=O)N2CCOCC2)cc1 | > 42.5 µg/mL |
| COc1cc2c(cc1OC)CN(C(=O)CCNC(=O)c1ccccc1Cl)CC2 | > 60.4 µg/mL |
| O=C(COC(=O)c1cc(=O)c2ccccc2o1)NCC1CCCCC1 | 33 µg/mL (≈ 96.1 µM) |
| CCc1c(C)c2cc(Cl)c(O)c(CN3CCCC3)c2oc1=O | 30.5 µg/mL (≈ 94.8 µM) |
| Cc1ccc(S(=O)(=O)/N=C(/Nc2c(C)cccc2C)c2ccccc2)cc1 | 7.3 µg/mL (≈ 19.3 µM) |
| Cc1ccc2[nH]c3ccccc3c(=O)c2c1 | 5.8 µg/mL (≈ 27.7 µM) |
| Cc1cc(NC(=O)c2ccc(F)cc2)ccc1NC(=O)c1ccco1 | 3.4 µg/mL (≈ 10 µM) |
| COc1ccc(CCNC(=O)COC(=O)CCC(=O)c2ccc(F)cc2)cc1 | 15.9 µg/mL (≈ 41 µM) |
| N/C(=N\c1nc2ccccc2o1)NC(=O)c1cccc(Cl)c1 | < 0.2 µg/mL |
